Measurements: patent US5596002A, “Method of treating chloroquine-resistant malaria with aminoquinoline derivatives” (Hoffmann-La Roche Inc., priority 1993, dated 1997)
Values after ≈ are worked out from the molar mass of the structure shown. Like-named read-outs stand apart in the source and are kept apart here.

Key:
[1] = system: Plasmodium falciparum, chloroquine-sensitive strain RFMEF3; experiment: activity against P. falciparum in vitro, strain RFMEF3; type: cell-based; details: read-out: IC50 (50% growth inhibition)
Outline: (§1)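 Asynchronous cultures, human A+ RBC, 0.7% parasitemia/2.5% Hct; RPMI 1640 + 25 mM HEPES, 25 mM NaHCO3, 10% human serum; 37° C, 3% O2, 4% CO2, 93% N2; 48 h-72 h. ^3H-hypoxanthine uptake; IC50 via logit regression.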

[2] = system: Plasmodium falciparum, chloroquine-sensitive strain HB3; experiment: activity against P. falciparum in vitro, strain HB3; type: cell-based; details: read-out: IC50 (50% growth inhibition)
Outline: as §1

[3] = system: Plasmodium falciparum, chloroquine-sensitive strain NF54; experiment: activity against P. falciparum in vitro, strain NF54; type: cell-based; details: Plasmodium falciparum, read-out: IC50 (50% growth inhibition)
Outline: as §1

[4] = system: Plasmodium falciparum, chloroquine-resistant strain RFCR3; experiment: activity against P. falciparum in vitro, strain RFCR3; type: cell-based; details: read-out: IC50 (50% growth inhibition)
Outline: as §1

[5] = system: Plasmodium falciparum, chloroquine-resistant strain 7G8; experiment: activity against P. falciparum in vitro, strain 7G8; type: cell-based; details: read-out: IC50 (50% growth inhibition)
Outline: as §1

[6] = system: Plasmodium falciparum, chloroquine-sensitive strain FCH5C2; experiment: activity against P. falciparum in vitro, strain FCH5C2; type: cell-based; details: read-out: IC50 (50% growth inhibition)
Outline: as §1

[7] = system: Plasmodium falciparum, chloroquine-resistant strain Indo; experiment: activity against P. falciparum in vitro, strain Indo; type: cell-based; details: read-out: IC50 (50% growth inhibition)
Outline: as §1

[8] = system: Plasmodium berghei (strain ANKA); experiment: activity against Plasmodium berghei in vivo (infected mice); details: for ED50: read-out: ED50 (po)
Outline: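 Male albino mice (~25 g, n=5) infected i.v. with P. berghei ANKA-parasitized erythrocytes, dosed once s.c. or p.o. 24 h post-infection, first at 10 mg/kg. Giemsa tail-blood smears 48 h post-treatment (D+3); GI % is parasitemia reduction versus vehicle controls; ED50/ED90 in mg/kg by nonlinear fit.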

[9] = system: Plasmodium falciparum, chloroquine-resistant strain ItG2 F6; experiment: activity against P. falciparum in vitro, strain ItG2 F6; type: cell-based; details: read-out: IC50 (50% growth inhibition)
Outline: as §1

[10] = system: Plasmodium falciparum, chloroquine-resistant strain K1; experiment: activity against P. falciparum in vitro, strain K1; type: cell-based; details: Plasmodium falciparum, read-out: IC50 (50% growth inhibition)
Outline: as §1

[11] = system: Plasmodium falciparum, chloroquine-resistant strain W2; experiment: activity against P. falciparum in vitro, strain W2; type: cell-based; details: read-out: IC50 (50% growth inhibition)
Outline: as §1

[12] = system: Plasmodium falciparum, chloroquine-sensitive strain Ro7 3; experiment: activity against P. falciparum in vitro, strain Ro7 3; type: cell-based; details: read-out: IC50 (50% growth inhibition)
Outline: as §1

[13] = system: Plasmodium falciparum, chloroquine-resistant strain W2 Mef; experiment: activity against P. falciparum in vitro, strain W2 Mef; type: cell-based; details: 48 h-72 h, read-out: IC50 (50% growth inhibition)
Outline: as §1

[14] = chloroquine-sensitive strain RFMEF3, 48 h-72 h
[15] = chloroquine-sensitive strain HB3, 48 h-72 h
[16] = chloroquine-sensitive strain NF54, 48 h-72 h
[17] = chloroquine-resistant strain RFCR3, 48 h-72 h
[18] = chloroquine-resistant strain 7G8, 48 h-72 h
[19] = chloroquine-sensitive strain FCH5C2, 48 h-72 h
[20] = chloroquine-resistant strain Indo, 48 h-72 h
[21] = mice, single administration po, dose reducing average erythrocyte infection rate by 50%
[22] = mice, single dose 10 mg/kg po, 48 hours after treatment (D+3), read-out: GI % at 10 mg/kg (po): percentage reduction in the parasitemia
[23] = mice, single dose 10 mg/kg sc, 48 hours after treatment (D+3), read-out: GI % at 10 mg/kg (sc): percentage reduction in the parasitemia
[24] = chloroquine-resistant strain ItG2 F6, 48 h-72 h
[25] = chloroquine-resistant strain K1, 48 h-72 h
[26] = chloroquine-resistant strain W2, 48 h-72 h
[27] = chloroquine-sensitive strain Ro7 3, 48 h-72 h

| Compound | IC50 [1, 14] [ng/mL] | IC50 [2, 15] [ng/mL] | IC50 [3, 16] [ng/mL] | IC50 [4, 17] [ng/mL] | IC50 [5, 18] [ng/mL] | IC50 [6, 19] [ng/mL] | IC50 [7, 20] [ng/mL] | ED50 [8, 21] [mg/kg] | inhibition in vivo at 10 mg/kg [8, 22] [%] | inhibition in vivo at 10 mg/kg [8, 23] [%] | IC50 [9, 24] [ng/mL] | IC50 [10, 25] [ng/mL] | IC50 [11, 26] [ng/mL] | IC50 [12, 27] [ng/mL] | IC50 [13] [ng/mL] | other results |
| --- | --- | --- | --- | --- | --- | --- | --- | --- | --- | --- | --- | --- | --- | --- | --- | --- |
| CCN(CC)[C@@H]1CCCC[C@H]1Nc1ccnc2cc(Cl)ccc12 (racemic) [Example 9, (1RS,2RS)-N1-(7-Chloro-quinolin-4-yl)-N2,N2-diethyl-cyclohexane-1,2-diamine] | 12 (≈ 0.0362 µM) | 14 (≈ 0.0422 µM) | 11 (≈ 0.0331 µM) | 17 (≈ 0.0512 µM) | 30 (≈ 0.0904 µM) | 15 (≈ 0.0452 µM) | 18 (≈ 0.0542 µM) | 4.4 | 99 | 99.6 | 17 (≈ 0.0512 µM) | 32 (≈ 0.0964 µM) | 31 (≈ 0.0934 µM) | 11 (≈ 0.0331 µM) | 25 (≈ 0.0753 µM) | – |
| Clc1ccc2c(N[C@@H]3CCCC[C@H]3N3CCCC3)ccnc2c1 (racemic) [Example 10, (1RS,2RS)-(7-Chloro-quinolin-4-yl)-(2pyrrolidin-1-yl-cyclohexyl)-amine] | 6 (≈ 0.0182 µM) | 8 (≈ 0.0243 µM) | 7 (≈ 0.0212 µM) | 18 (≈ 0.0546 µM) | 15 (≈ 0.0455 µM) | 5 (≈ 0.0152 µM) | 16 (≈ 0.0485 µM) | 6.4 | 99 | 99 | 7 (≈ 0.0212 µM) | 17 (≈ 0.0515 µM) | 13 (≈ 0.0394 µM) | 7 (≈ 0.0212 µM) | 15 (≈ 0.0455 µM) | – |
| CCN(CC)[C@@H]1CCC[C@H]1Nc1ccnc2cc(Cl)ccc12 (racemic) [Example 11, (1RS,2RS)-N1-(7-Chloro-quinolin-4-yl)-N2,N2-diethyl-cyclopentane-1,2-diamine] | 6 (≈ 0.0189 µM) | 6 (≈ 0.0189 µM) | 5 (≈ 0.0157 µM) | 13 (≈ 0.0409 µM) | 9 (≈ 0.0283 µM) | 7 (≈ 0.022 µM) | 10 (≈ 0.0315 µM) | 2.2 | 99.9 | 99.9 | 6 (≈ 0.0189 µM) | 18 (≈ 0.0566 µM) | 15 (≈ 0.0472 µM) | 5 (≈ 0.0157 µM) | 9 (≈ 0.0283 µM) | – |
| CN1CCCC(Nc2ccnc3cc(Cl)ccc23)C1 (racemic) [Example 19a, (RS)-(7-Chloro-quinolin-4-yl)-(1-methyl-piperidin-3-yl)-amine] | 7 (≈ 0.0254 µM) | 6 (≈ 0.0218 µM) | 6 (≈ 0.0218 µM) | 11 (≈ 0.0399 µM) | 8 (≈ 0.029 µM) | 7 (≈ 0.0254 µM) | 8 (≈ 0.029 µM) | 2.4 | 99.9 | 99.9 | 5 (≈ 0.0181 µM) | 9 (≈ 0.0326 µM) | 10 (≈ 0.0363 µM) | 5 (≈ 0.0181 µM) | 6 (≈ 0.0218 µM) | – |
| CN1CCC(Nc2ccnc3cc(Cl)ccc23)C1 (racemic) [Example 33a, (R,S)-(7-Chloro-quinolin-4-yl)-(1-methyl-pyrrolidin-3-yl)-amine] | 7 (≈ 0.0267 µM) | 7 (≈ 0.0267 µM) | 7 (≈ 0.0267 µM) | 9 (≈ 0.0344 µM) | 9 (≈ 0.0344 µM) | 8 (≈ 0.0306 µM) | 9 (≈ 0.0344 µM) | 3.3 | 99.7 | 99.9 | 5 (≈ 0.0191 µM) | 8 (≈ 0.0306 µM) | 9 (≈ 0.0344 µM) | 5 (≈ 0.0191 µM) | 7 (≈ 0.0267 µM) | – |
| Clc1ccc2c(N[C@@H]3CCC[C@H]3N3CCCC3)ccnc2c1 (relative stereo) [Example 11a, (1RS,2RS)-N1-(7-Chloro-quinolin-4-yl)-(2-pyrrolidin-1-yl-cyclopentyl)-amine] | 7 (≈ 0.0222 µM) | 6 (≈ 0.019 µM) | 7 (≈ 0.0222 µM) | 18 (≈ 0.057 µM) | 14 (≈ 0.0443 µM) | 7 (≈ 0.0222 µM) | 15 (≈ 0.0475 µM) | 4.5 | 99 | 99.6 | 8 (≈ 0.0253 µM) | 15 (≈ 0.0475 µM) | 17 (≈ 0.0538 µM) | 4 (≈ 0.0127 µM) | 15 (≈ 0.0475 µM) | – |
| CCN(CC)CCCC(C)Nc1ccnc2cc(Cl)ccc12 (stereo not drawn) [Chloroquine diphosphate, reference compound] | – | – | – | – | – | – | – | – | – | – | – | – | – | – | 79 | IC50 ([1]; 48 h): 14 ng/mL; IC50 ([2]; HB3, 48 h): 11 ng/mL; IC50 ([3]; NF54, 48 h): 8 ng/mL; IC50 ([4]; 48 h): 130 ng/mL; IC50 ([5]; 7G8, 48 h): 81 ng/mL; IC50 ([6]; 48 h): 12 ng/mL; IC50 ([7]; 48 h): 52 ng/mL; ED50 ([8]; Erythrocyte, po): 2.4 mg/kg; inhibition in vivo at 10 mg/kg ([8]; po, 48 h, read-out: GI % at 10 mg/kg (po): percentage reduction in the parasitemia): 99.9%; inhibition in vivo at 10 mg/kg ([8]; sc, 48 h, read-out: GI % at 10 mg/kg (sc): percentage reduction in the parasitemia): 99.9%; IC50 ([9]; 48 h): 68 ng/mL; IC50 ([10]; K1, 48 h): 11 ng/mL; IC50 ([11]; W2, 48 h): 123 ng/mL; IC50 ([12]; 48 h): 8 ng/mL |
| CN1CCCC1CNc1ccnc2cc(Cl)ccc12 (stereo not drawn) [Example 12a, (7-Chloro-quinolin-4-yl)-(1-methyl-pyrrolidin-2-yl-methyl)-amine] | 8 (≈ 0.029 µM) | 10 (≈ 0.0363 µM) | 7 (≈ 0.0254 µM) | 11 (≈ 0.0399 µM) | 8 (≈ 0.029 µM) | 8 (≈ 0.029 µM) | 11 (≈ 0.0399 µM) | 4.8 | 91 | 91 | 5 (≈ 0.0181 µM) | 9 (≈ 0.0326 µM) | 9 (≈ 0.0326 µM) | 7 (≈ 0.0254 µM) | 6 (≈ 0.0218 µM) | – |
| Clc1ccc2c(NCCCN3CCCCC3)ccnc2c1 [Example 18, (7-Chloro-quinolin-4-yl)-(3-piperidin-1-yl-propyl)-amine] | 8 (≈ 0.0263 µM) | 8 (≈ 0.0263 µM) | 4 (≈ 0.0132 µM) | 8 (≈ 0.0263 µM) | 12 (≈ 0.0395 µM) | 4 (≈ 0.0132 µM) | 7 (≈ 0.023 µM) | 6.9 | 83 | 96 | 7 (≈ 0.023 µM) | 14 (≈ 0.0461 µM) | 11 (≈ 0.0362 µM) | 7 (≈ 0.023 µM) | 12 (≈ 0.0395 µM) | – |
